Reference: patent US20040023802A1, “Increasing plant yield and/or vigor by seed treatment with a neonicotinoid compound” (Monsanto Technology, L.L.C., priority 2002, published 2004)

Key:
Type in all cases: in vivo
[1] = tested on: corn hybrids RX670 and RX601 having transgenic events MON853, MON863, MON810; experiment: Field trials of corn yield of transgenic seed at low pest pressure, with and without imidacloprid seed treatment; conditions: 60 gm per 100 kg of seed; all trials; relative absence of insect pressure
Protocol: (§1) Corn hybrids with and without transgenic events expressing insecticidal proteins were evaluated for field efficacy. The hybrids that were evaluated were RX670 and RX601, each as an isoline (having no transgenic events) and each having a transgenic event expressing the Cry3Bb protein having activity against Diabrotica spp. (corn rootworm)—designated as MON853, or a transgenic event expressing the Cry3Bb protein having activity against corn rootworm—designated as MON863, or a combination of MON853 and a transgenic event expressing the Cry1A protein having activity against European corn borer—designated as MON810, or a combination of MON863 and MON810. Accordingly, an isoline and four transgenic forms were tested for each hybrid. Each type of seed was tested with and without seed treatment with 60 gm of imidacloprid per 100 kg of seed, applied in a Niklas seed treater. The isoline seeds were also tested with and without the use of conventional soil-applied insecticides, which were applied as described in Example 3.

[2] = tested on: corn rootworm; secondary insect pests of corn; experiment: Insect protection of corn by imidacloprid seed treatment at 0.165 mg/kernel (stated as previously shown); conditions: 0.165 mg imidacloprid/kernel
[3] = tested on: isoline (non-transgenic) corn hybrids RX670 and RX601; experiment: Field tests of corn yield of isoline hybrids at low pest pressure, with and without imidacloprid seed treatment; conditions: 60 gm per 100 kg of seed; four location/hybrid cases
Protocol: as §1

commercial corn hybrids = experiment: Hybrid seed production (breeding station) field trial: final stand count and plot yield of corn from imidacloprid-treated seed; conditions: for Stand count, Imidacloprid treated / Corn yield, Imidacloprid treated: 0.165 mg/kernel + fungicide; for Stand count, Imidacloprid treated: V5 stage; for Corn yield, Imidacloprid treated: at maturity, 15% moisture; for Corn yield, Difference / Stand count, Difference: imidacloprid treated vs fungicide-only control; for Actual Yield Over Expected: yield increase vs that expected from stand improvement (about 1% per 1,000 plants/ac); for Actual Yield Over 2× of Expected: yield increase vs two-times that predicted from stand improvement
corn hybrids = experiment: Field strip trials of corn yield under different tillage regimes: soil insecticide alone or plus Gaucho seed treatment
Protocol: Seed of three corn hybrids were treated with imidacloprid in the manner described in Example 3. Seed were planted using standard planting equipment in field experiments across the U.S. corn belt. All experiments were conducted as strip trials, under a variety of tillage regimes, and all trials received standard weed control and cultural practices common to commercial corn production. Plot yield was collected using standard mechanical harvesting equipment.
Soil insecticides were applied in the manner described in Example 2. Considerable increase in corn yield was also observed when corn seed treated with imidacloprid were planted in soils treated with soil-applied insecticide. The increase in yield was observed under all tillage conditions and for all the hybrids tested. Table 7 compares the yield from untreated corn seeds and corn seeds treated with imidacloprid when planted on soil treated with soil-applied insecticide. […] Soil-applied insecticides are known to be an effective method for controlling secondary insects, so the increase in corn yield was surprising.
No-Till-Tillage system refers to situations where no tillage methods are applied to the soil prior to or at planting.
Conservation/Minimum tillage refers to reduced tillage practices allowing at least 30% of soil surface to remain covered with crop residue.
Conventional Tillage refers to tillage practices where less than 30% of soil surface is covered with previous crop residue.
Such practices may include moldboard plowing, disking, or multiple field cultivation passes prior to or at planting of crop. Strip and Ridge-Till, although usually grouped in conservation tillage because of beneficial effects on soil and water retention, are grouped in conventional tillage here because the tilled zones in which the crop is planted provide an environment more similar to true conventional tillage.

[4] = hybrid B = DKC46-26, 10 locations
[5] = hybrid D = DKC51-88, 10 locations
[6] = hybrid F = LH244XLH295, 10 locations
[7] = hybrid H = HC33XLH277, 14 locations
[8] = hybrid I = DKC57-38, 14 locations
[9] = vs fungicide-treated control, 12 hybrids

O=[N+]([O-])NC1=NCCN1Cc1ccc(Cl)nc1 [Imidacloprid, imidacloprid]
corn yield of transgenic seed treated with imidacloprid vs isolines and untreated transgenic strains [1]: higher than the isolines, and also higher than the untreated transgenic strains
protection of corn seedlings against stand reducing and growth limiting secondary insect pests [2]: effective
reduction of root injury by corn rootworm ([2]; locations with economically damaging levels of corn rootworm): not significantly reduce root injury
effect of imidacloprid treatment on yield for isoline corn [3]: increased by imidacloprid treatment in one-half of the cases tested
Stand count, Imidacloprid treated (commercial corn hybrids; hybrid A = DK440, 10 locations): 31920 plts/ac
Corn yield, Imidacloprid treated (commercial corn hybrids; hybrid A = DK440, 10 locations): 163.5 bu/ac
Stand count, Imidacloprid treated (commercial corn hybrids; [4]): 32061 plts/ac
Corn yield, Imidacloprid treated (commercial corn hybrids; [4]): 170.8 bu/ac
Stand count, Imidacloprid treated (commercial corn hybrids; hybrid C = DK493, 10 locations): 31217 plts/ac
Corn yield, Imidacloprid treated (commercial corn hybrids; hybrid C = DK493, 10 locations): 159.6 bu/ac
Stand count, Imidacloprid treated (commercial corn hybrids; [5]): 31828 plts/ac
Corn yield, Imidacloprid treated (commercial corn hybrids; [5]): 169.4 bu/ac
Stand count, Imidacloprid treated (commercial corn hybrids; hybrid E = DK537, 10 locations): 32011 plts/ac
Corn yield, Imidacloprid treated (commercial corn hybrids; hybrid E = DK537, 10 locations): 171.2 bu/ac
Stand count, Imidacloprid treated (commercial corn hybrids; [6]): 30786 plts/ac
Corn yield, Imidacloprid treated (commercial corn hybrids; [6]): 173.1 bu/ac
Stand count, Imidacloprid treated (commercial corn hybrids; hybrid G = DK567, 14 locations): 28766 plts/ac
Corn yield, Imidacloprid treated (commercial corn hybrids; hybrid G = DK567, 14 locations): 167.5 bu/ac
Stand count, Imidacloprid treated (commercial corn hybrids; [7]): 28004 plts/ac
Corn yield, Imidacloprid treated (commercial corn hybrids; [7]): 164.6 bu/ac
Stand count, Imidacloprid treated (commercial corn hybrids; [8]): 28460 plts/ac
Corn yield, Imidacloprid treated (commercial corn hybrids; [8]): 172.3 bu/ac
Stand count, Imidacloprid treated (commercial corn hybrids; hybrid J = DK585, 14 locations): 28273 plts/ac
Corn yield, Imidacloprid treated (commercial corn hybrids; hybrid J = DK585, 14 locations): 179.5 bu/ac
Stand count, Imidacloprid treated (commercial corn hybrids; hybrid K = DK611, 14 locations): 28984 plts/ac
Corn yield, Imidacloprid treated (commercial corn hybrids; hybrid K = DK611, 14 locations): 171.3 bu/ac
Stand count, Imidacloprid treated (commercial corn hybrids; hybrid L = RX708, 14 locations): 28986 plts/ac
Corn yield, Imidacloprid treated (commercial corn hybrids; hybrid L = RX708, 14 locations): 180.7 bu/ac
Corn yield, Difference (commercial corn hybrids; hybrid A = DK440, 10 locations): 2.0 bu/ac
Stand count, Difference (commercial corn hybrids; hybrid A = DK440, 10 locations): 843.8 plts/ac
Corn yield, Difference (commercial corn hybrids; [4]): 4.1 bu/ac
Stand count, Difference (commercial corn hybrids; [4]): 439.0 plts/ac
Corn yield, Difference (commercial corn hybrids; hybrid C = DK493, 10 locations): 5.8 bu/ac
Stand count, Difference (commercial corn hybrids; hybrid C = DK493, 10 locations): 749.5 plts/ac
Corn yield, Difference (commercial corn hybrids; [5]): −0.7 bu/ac
Stand count, Difference (commercial corn hybrids; [5]): 946.8 plts/ac
Corn yield, Difference (commercial corn hybrids; hybrid E = DK537, 10 locations): 1.0 bu/ac
Stand count, Difference (commercial corn hybrids; hybrid E = DK537, 10 locations): 620.0 plts/ac
Corn yield, Difference (commercial corn hybrids; [6]): 4.7 bu/ac
Stand count, Difference (commercial corn hybrids; [6]): 1162.3 plts/ac
Corn yield, Difference (commercial corn hybrids; hybrid G = DK567, 14 locations): 3.5 bu/ac
Stand count, Difference (commercial corn hybrids; hybrid G = DK567, 14 locations): 1189.2 plts/ac
Corn yield, Difference (commercial corn hybrids; [7]): 4.8 bu/ac
Stand count, Difference (commercial corn hybrids; [7]): 39.6 plts/ac
Corn yield, Difference (commercial corn hybrids; [8]): 9.2 bu/ac
Stand count, Difference (commercial corn hybrids; [8]): 1822.2 plts/ac
Corn yield, Difference (commercial corn hybrids; hybrid J = DK585, 14 locations): 3.7 bu/ac
Stand count, Difference (commercial corn hybrids; hybrid J = DK585, 14 locations): 429.3 plts/ac
Corn yield, Difference (commercial corn hybrids; hybrid K = DK611, 14 locations): 0.1 bu/ac
Stand count, Difference (commercial corn hybrids; hybrid K = DK611, 14 locations): 1022.8 plts/ac
Corn yield, Difference (commercial corn hybrids; hybrid L = RX708, 14 locations): 6.9 bu/ac
Stand count, Difference (commercial corn hybrids; hybrid L = RX708, 14 locations): 803.7 plts/ac
increase or decrease in corn yield vs untreated seeds (FIG. 2 by hybrid, FIG. 3 by location) (commercial corn hybrids; twelve hybrids, twenty four locations): consistent and commercially important increases in corn yield
hybrid/seed treatment combinations with yield increase more than expected on the basis of stand improvement alone (commercial corn hybrids; [9]): 9 out of 12
hybrid/seed treatment combinations with yield increase over two-times that predicted on the basis of stand improvement (commercial corn hybrids; [9]): 7 out of 12
Actual Yield Over Expected (commercial corn hybrids; hybrid A = DK440): Yes
Actual Yield Over Expected (commercial corn hybrids; hybrid B = DKC46-26): Yes
Actual Yield Over Expected (commercial corn hybrids; hybrid C = DK493): Yes
Actual Yield Over Expected (commercial corn hybrids; hybrid D = DKC51-88): No
Actual Yield Over Expected (commercial corn hybrids; hybrid E = DK537): No
Actual Yield Over Expected (commercial corn hybrids; hybrid F = LH244XLH295): Yes
Actual Yield Over Expected (commercial corn hybrids; hybrid G = DK567): Yes
Actual Yield Over Expected (commercial corn hybrids; hybrid H = HC33XLH277): Yes
Actual Yield Over Expected (commercial corn hybrids; hybrid I = DKC57-38): Yes
Actual Yield Over Expected (commercial corn hybrids; hybrid J = DK585): Yes
Actual Yield Over Expected (commercial corn hybrids; hybrid K = DK611): No
Actual Yield Over Expected (commercial corn hybrids; hybrid L = RX708): Yes
Actual Yield Over 2× of Expected (commercial corn hybrids; hybrid A = DK440): No
Actual Yield Over 2× of Expected (commercial corn hybrids; hybrid B = DKC46-26): Yes
Actual Yield Over 2× of Expected (commercial corn hybrids; hybrid C = DK493): Yes
Actual Yield Over 2× of Expected (commercial corn hybrids; hybrid D = DKC51-88): No
Actual Yield Over 2× of Expected (commercial corn hybrids; hybrid E = DK537): No
Actual Yield Over 2× of Expected (commercial corn hybrids; hybrid F = LH244XLH295): Yes
Actual Yield Over 2× of Expected (commercial corn hybrids; hybrid G = DK567): No
Actual Yield Over 2× of Expected (commercial corn hybrids; hybrid H = HC33XLH277): Yes
Actual Yield Over 2× of Expected (commercial corn hybrids; hybrid I = DKC57-38): Yes
Actual Yield Over 2× of Expected (commercial corn hybrids; hybrid J = DK585): Yes
Actual Yield Over 2× of Expected (commercial corn hybrids; hybrid K = DK611): No
Actual Yield Over 2× of Expected (commercial corn hybrids; hybrid L = RX708): Yes
increase in corn yield (corn hybrids; conservation/minimum tillage): 1.6%
increase in corn yield (corn hybrids; convention tillage): 1.7%
increase in corn yield (corn hybrids; no-till cultivation): 6.3%
corn yield vs seeds without imidacloprid treatment (corn hybrids; planted on soil treated with soil-applied insecticide, all tillage conditions and hybrids): considerably higher yield
